Consider four compounds from patent US9717748B2, “Compositions and methods for treating an infection” (CMPD LICENSING, LLC, priority 2015, dated 2017).

In one experiment the test system is Aspergillus flavus. The experiment in a line: Expected efficacy of antifungal agents.
The next experiment deals with Scedosporium apiospermum. The experiment in a line: Expected efficacy of antifungal agents.
The test system of the next experiment is Aspergillus fumigatus. Description: Expected efficacy of antifungal agents.
For a further experiment, the system named is Enterococcus faecium. The experiment in a line: Expected efficacy of antibiotic agents. Conditions: Gram: pos.
Another experiment has as its system Diphtheroids. Description: Expected efficacy of antibiotic agents. The settings on record: Gram: pos.
A further experiment deals with Proteus mirabilis. The experiment in a line: Expected efficacy of antibiotic agents. The settings on record: Gram: neg.
A further experiment concerns Shigella flexneri. Description: Expected efficacy of antibiotic agents. The settings on record: Gram: neg.
A further experiment deals with Clostridium difficile. The experiment in a line: Expected efficacy of antibiotic agents. Conditions: Gram: anaer.
Another experiment concerns Chlamydia psittaci. Conditions: Gram: n/a.
For a further experiment, the system named is Enterococcus faecalis. The experiment in a line: Expected efficacy of antibiotic agents. The settings on record: Gram: pos.
The next experiment deals with Enterobacter cloacae. The experiment in a line: Expected efficacy of antibiotic agents. Conditions: Gram: neg.
The next experiment relates to Mycoplasma pneumoniae. Description: Expected efficacy of antibiotic agents. The settings on record: Gram: n/a.
For a further experiment, the system named is Streptococcus pneumoniae. Description: Expected efficacy of antibiotic agents. Conditions: Gram: pos.
The test system of experiment [1] is Klebsiella (Calymmato-bacterium) granulomatis. Description: Expected efficacy of antibiotic agents. Conditions: Gram: neg.
The subject of experiment [2] is Acinetobacter calcoaceticus. Description: Expected efficacy of antibiotic agents. The settings on record: Gram: neg.
Experiment [3] concerns Staphylococcus epidermidis. Description: Expected efficacy of antibiotic agents. Conditions: Gram: pos.
In another experiment the test system is Haemophilus ducreyi. The experiment in a line: Expected efficacy of antibiotic agents. The settings on record: Gram: neg.
A further experiment concerns Neisseria meningitidis. Description: Expected efficacy of antibiotic agents. Conditions: Gram: neg.
The test system of the next experiment is Bordetella pertussis. Description: Expected efficacy of antibiotic agents. Conditions: Gram: neg.
Another experiment has as its system Acinetobacter baumannii. Description: Expected efficacy of antibiotic agents. The settings on record: Gram: neg.
The test system of a further experiment is Citrobacter freundii. Description: Expected efficacy of antibiotic agents. The settings on record: Gram: neg.
For a further experiment, the system named is Klebsiella pneumoniae. Description: Expected efficacy of antibiotic agents. Conditions: Gram: neg.
Another experiment concerns Chlamydia pneumoniae. Description: Expected efficacy of antibiotic agents. Conditions: Gram: n/a.
The test system of experiment [4] is Staphylococcus aureus (MSSA). The experiment in a line: Expected efficacy of antibiotic agents. Conditions: Gram: pos.
A further experiment deals with Yersinia pestis. Conditions: Gram: neg.
The subject of another experiment is Bacteroides fragilis. Description: Expected efficacy of antibiotic agents. The settings on record: Gram: anaer.
A further experiment has as its system Vibrio cholerae. The experiment in a line: Expected efficacy of antibiotic agents. The settings on record: Gram: neg.
The test system of a further experiment is Clostridium perfringens. The settings on record: Gram: anaer.
The test system of a further experiment is Neisseria gonorrhoeae. The experiment in a line: Expected efficacy of antibiotic agents. The settings on record: Gram: neg.
Another experiment has as its system Chlamydia trachomatis. The experiment in a line: Expected efficacy of antibiotic agents. The settings on record: Gram: n/a.
For another experiment, the system named is Streptococcus agalactiae. The experiment in a line: Expected efficacy of antibiotic agents. Conditions: Gram: pos.
The next experiment relates to Moraxella catarrhalis. The experiment in a line: Expected efficacy of antibiotic agents. The settings on record: Gram: neg.
Another experiment concerns Streptococcus pyogenes. Description: Expected efficacy of antibiotic agents. Conditions: Gram: pos.
Another experiment has as its system Shigella dysenteriae. Description: Expected efficacy of antibiotic agents. Conditions: Gram: neg.
Experiment [5] deals with Corynebacterium urealyticum. Description: Expected efficacy of antibiotic agents. The settings on record: Gram: pos.
The subject of the next experiment is Peptostreptococcus. The experiment in a line: Expected efficacy of antibiotic agents. Conditions: Gram: pos.
The subject of the next experiment is Shigella sonnei. Description: Expected efficacy of antibiotic agents. Conditions: Gram: neg.
Experiment [6] deals with Methicillin resistant staphaureus (MRSA). The experiment in a line: Expected efficacy of antibiotic agents. Conditions: Gram: pos.
In another experiment the test system is Pseudomonas aeruginosa. Description: Expected efficacy of antibiotic agents. The settings on record: Gram: neg.
A further experiment deals with Corynebacterium jeikeium. The experiment in a line: Expected efficacy of antibiotic agents. The settings on record: Gram: pos.
In the next experiment the test system is Campylobacter jejuni. Description: Expected efficacy of antibiotic agents. The settings on record: Gram: neg.
The next experiment has as its system Enterobacter sakazakii. Description: Expected efficacy of antibiotic agents. Conditions: Gram: neg.
Experiment [7] relates to Viridans group streptococci. Description: Expected efficacy of antibiotic agents. Conditions: Gram: pos.
Another experiment deals with Acinetobacter lwoffii. The experiment in a line: Expected efficacy of antibiotic agents. Conditions: Gram: neg.
A further experiment deals with Legionella pneumophila. Conditions: Gram: neg.
The test system of the next experiment is Leishmania infantum. The experiment in a line: Expected efficacy of antifungal agents.
Another experiment has as its system Cryptococcus neoformans. Description: Expected efficacy of antifungal agents.
Experiment [8] deals with Trichophyton mentagrophytes. The experiment in a line: Expected efficacy of antifungal agents.

Molecules are shown by their SMILES.

For `C[C@@H](c1ncncc1F)[C@](O)(Cn1cncn1)c1ccc(F)cc1F` [Voriconazole], the “Expected efficacy against Aspergillus flavus” value with Aspergillus flavus is on record as “yes”. Moreover, in the experiment on Scedosporium apiospermum, the “Expected efficacy against Scedosporium apiospermum” value is “yes”. For the same compound, in the experiment with Aspergillus fumigatus, the “Expected efficacy against Aspergillus fumigatus” value is reported as “yes”.

Regarding `NC[C@H]1O[C@H](O[C@H]2[C@H](O)[C@@H](O[C@H]3O[C@H](CO)[C@@H](O)[C@H](N)[C@H]3O)[C@H](N)C[C@@H]2N)[C@H](N)C[C@@H]1O` [Tobramycin], the “Expected efficacy against Enterococcus faecium” value in the experiment on Enterococcus faecium was “no”. In the experiment with Diphtheroids, the “Expected efficacy against Diphtheroids” value is on record as “no”. The “Expected efficacy against Proteus mirabilis” value in the experiment on Proteus mirabilis is listed as “yes”. Further, the “Expected efficacy against Shigella flexneri” value in the experiment on Shigella flexneri is recorded as “yes”. Besides, the “Expected efficacy against Clostridium difficile” value with Clostridium difficile is recorded as “no”. The “Expected efficacy against Chlamydia psittaci” value with Chlamydia psittaci is “no”. Moreover, in the experiment on Enterococcus faecalis, the “Expected efficacy against Enterococcus faecalis” value is reported as “no”. In addition, the “Expected efficacy against Enterobacter cloacae” value with Enterobacter cloacae is “yes”. For the same compound, the “Expected efficacy against Mycoplasma pneumoniae” value with Mycoplasma pneumoniae is given as “no”. Also, the “Expected efficacy against Streptococcus pneumoniae” value in the experiment on Streptococcus pneumoniae is on record as “no”. Besides, the “Expected efficacy against Klebsiella (Calymmato-bacterium) granulomatis” value in experiment [1] was “yes”. Also, the “Expected efficacy against Acinetobacter calcoaceticus” value in experiment [2] is “no”. The “Expected efficacy against Staphylococcus epidermidis” value in [3] is “no”. Also, the “Expected efficacy against Haemophilus ducreyi” value in the experiment with Haemophilus ducreyi was “yes”. Also, the “Expected efficacy against Neisseria meningitidis” value in the experiment with Neisseria meningitidis is “no”. In the experiment on Bordetella pertussis, the “Expected efficacy against Bordetella pertussis” value is “no”. For the same compound, the “Expected efficacy against Acinetobacter baumannii” value in the experiment with Acinetobacter baumannii was “no”. Besides, the “Expected efficacy against Citrobacter freundii” value with Citrobacter freundii is on record as “yes”. Moreover, the “Expected efficacy against Klebsiella pneumoniae” value in the experiment on Klebsiella pneumoniae is listed as “yes”. In the experiment on Chlamydia pneumoniae, the “Expected efficacy against Chlamydia pneumoniae” value is “no”. Moreover, the “Expected efficacy against Staphylococcus aureus (MSSA)” value in experiment [4] is “no”. The “Expected efficacy against Yersinia pestis” value in the experiment with Yersinia pestis is “yes”. For the same compound, in the experiment on Bacteroides fragilis, the “Expected efficacy against Bacteroides fragilis” value is recorded as “no”. Also, the “Expected efficacy against Vibrio cholerae” value with Vibrio cholerae was “no”. Further, in the experiment with Clostridium perfringens, the “Expected efficacy against Clostridium perfringens” value is “no”. Also, the “Expected efficacy against Neisseria gonorrhoeae” value with Neisseria gonorrhoeae was “no”. For the same compound, the “Expected efficacy against Chlamydia trachomatis” value in the experiment on Chlamydia trachomatis is recorded as “no”. Besides, the “Expected efficacy against Streptococcus agalactiae” value in the experiment with Streptococcus agalactiae was “no”. Further, the “Expected efficacy against Moraxella catarrhalis” value in the experiment on Moraxella catarrhalis is given as “yes”. Further, the “Expected efficacy against Streptococcus pyogenes” value in the experiment on Streptococcus pyogenes was “no”. The “Expected efficacy against Shigella dysenteriae” value in the experiment with Shigella dysenteriae is recorded as “yes”. Moreover, in experiment [5], the “Expected efficacy against Corynebacterium urealyticum” value is listed as “no”. For the same compound, the “Expected efficacy against Peptostreptococcus” value with Peptostreptococcus is listed as “no”. In the experiment with Shigella sonnei, the “Expected efficacy against Shigella sonnei” value was “yes”. In addition, the “Expected efficacy against Methicillin resistant staphaureus (MRSA)” value in experiment [6] is “no”. Besides, the “Expected efficacy against Pseudomonas aeruginosa” value with Pseudomonas aeruginosa is “yes”. The “Expected efficacy against Corynebacterium jeikeium” value in the experiment with Corynebacterium jeikeium is recorded as “no”. In addition, the “Expected efficacy against Campylobacter jejuni” value with Campylobacter jejuni is given as “yes”. In addition, the “Expected efficacy against Enterobacter sakazakii” value in the experiment with Enterobacter sakazakii is “yes”. The “Expected efficacy against Viridans group streptococci” value in [7] was “no”. Besides, the “Expected efficacy against Acinetobacter lwoffii” value in the experiment with Acinetobacter lwoffii was “no”. Further, in the experiment on Legionella pneumophila, the “Expected efficacy against Legionella pneumophila” value is “no”.

`C[C@@H]1[C@H](O)[C@@H](C)/C=C/C=C/C=C/C=C/C=C/C=C/C=C/[C@H](O[C@@H]2O[C@H](C)[C@@H](O)[C@H](N)[C@@H]2O)C[C@@H]2O[C@](O)(C[C@@H](O)C[C@@H](O)[C@H](O)CC[C@@H](O)C[C@@H](O)CC(=O)O[C@H]1C)C[C@H](O)[C@H]2C(=O)O` [Amphotericin]: in the experiment with Leishmania infantum, the “Expected efficacy against Leishmania infantum” value is “yes”. For the same compound, in the experiment with Aspergillus flavus, the “Expected efficacy against Aspergillus flavus” value is reported as “yes”. Further, in the experiment on Aspergillus fumigatus, the “Expected efficacy against Aspergillus fumigatus” value is “yes”. Further, the “Expected efficacy against Cryptococcus neoformans” value in the experiment on Cryptococcus neoformans is given as “yes”. Further, in the experiment with Coccidioides immitis, the “Expected efficacy against Coccidioides immitis” value is given as “yes”.

For `CCC(C)n1ncn(-c2ccc(N3CCN(c4ccc(OC[C@H]5CO[C@](Cn6cncn6)(c6ccc(Cl)cc6Cl)O5)cc4)CC3)cc2)c1=O` (mixture of isomers) [Itraconazole], the “Expected efficacy against Aspergillus flavus” value in the experiment with Aspergillus flavus was “yes”. Besides, in the experiment on Aspergillus fumigatus, the “Expected efficacy against Aspergillus fumigatus” value is “yes”. Moreover, the “Expected efficacy against Cryptococcus neoformans” value with Cryptococcus neoformans is “yes”. Moreover, the “Expected efficacy against Coccidioides immitis” value in the experiment on Coccidioides immitis is reported as “yes”. For the same compound, the “Expected efficacy against Trichophyton mentagrophytes” value in experiment [8] is “yes”.
